In patent US20110224079A1, “SPIROHETEROCYCLIC N-OXYAMIDES AS PESTICIDES” (SYNGENTA CROP PROTECTION LLC, priority 2008, published 2011):

Experiments:
[1] = test system: Myzus persicae (green peach aphid); assay: Example B2: activity against Myzus persicae, pea seedling roots in test solution (systemic/feeding, curative); settings: 144 h, read-out: activity (mortality)
[2] = test system: Tetranychus urticae (two-spotted spider mite); assay: Example B4: activity against Tetranychus urticae, sprayed bean leaf discs (feeding/residual contact, preventive); settings: foliar, 192 h, read-out: activity (egg, larval and adult mortality)
[3] = test system: Myzus persicae (green peach aphid); assay: Example B1: activity against Myzus persicae, sprayed sunflower leaf discs (feeding/residual contact, preventive); settings: foliar, 144 h, read-out: activity (mortality)
[4] = test system: Myzus persicae (green peach aphid); assay: Example B17: activity against Myzus persicae on sprayed pepper plants (feeding/residual contact); format: in vivo; settings: 144 h, infested pepper plants sprayed, 6 days

Row | SMILES | mortality at 400 ppm [1] [%] | mortality at 400 ppm [2] [%] | mortality at 400 ppm [3] [%] | mortality at 200 ppm [4] [%]
1 | CCOC(=O)OC1=C(c2c(C)cc(C)cc2C)C(=O)N(OC2CCN(OC)CC2)C12CCN(OC)CC2 [P1.104] | > 80 | > 80 |  | 
2 | COCON1C(=O)C(c2cc(-c3ccc(Cl)cc3)ccc2C)=C(O)C12CCN(OC)CC2 [P2.17] |  | > 80 | > 80 | 
3 | COCCON1C(=O)C(c2c(C)cc(C)cc2Cl)=C(O)C12CCN(OC)CC2 [P2.35] | > 80 | > 80 | > 80 | 
4 | CON1CCC2(CC1)C(O)=C(c1c(C)cc(Br)cc1C)C(=O)N2OC [P2.79] | > 80 | > 80 |  | ≥ 80
5 | CCOC(=O)OC1=C(c2cc(C)c(C)cc2C)C(=O)N(OC2CCCO2)C12CCN(OC)CC2 (centres unmarked) [P1.54] |  | > 80 | > 80 | 
6 | CCOC(=O)OC1=C(c2c(C)cc(C)cc2C)C(=O)N(OC(=O)C2CC2)C12CCN(OC)CC2 [P1.16] | > 80 | > 80 |  | 
7 | CCOC(=O)OC1=C(c2c(C)cc(C)cc2C)C(=O)N(OCC2CCC2)C12CCN(OC)CC2 [P1.106] | > 80 | > 80 | > 80 | ≥ 80
8 | CCOC(=O)OC1=C(c2cc(-c3ccc(Cl)cc3)ccc2C)C(=O)N(OCOC)C12CCN(OC)CC2 [P1.22] |  | > 80 | > 80 | 
9 | CON1CCC2(CC1)C(O)=C(c1c(F)ccc(C)c1Cl)C(=O)N2OC [P2.58] | > 80 | > 80 |  | 
10 | CON1CCC2(CC1)C(O)=C(c1c(C)cc(C)cc1C)C(=O)N2OC1CCCCO1 (centres unmarked) [P2.65] | > 80 | > 80 | > 80 | ≥ 80
11 | CON1CCC2(CC1)C(O)=C(c1c(C)cc(C)cc1Cl)C(=O)N2OC1CCCO1 (centres unmarked) [P2.94] | > 80 | > 80 | > 80 | ≥ 80
12 | CCOC(=O)OC1=C(c2c(C)cc(C)cc2C)C(=O)N(OCC2CCCC2)C12CCN(OC)CC2 [P1.83] | > 80 | > 80 |  | ≥ 80
13 | CCOC(=O)OC1=C(c2c(C)cc(C)cc2C)C(=O)N(OCC2(CC)COC2)C12CCN(OC)CC2 [P1.84] | > 80 | > 80 |  | 
14 | CCOC(=O)OC1=C(c2c(C)cc(C)cc2C)C(=O)N(OC2CCOCC2)C12CCN(OC)CC2 [P1.76] | > 80 | > 80 |  | ≥ 80
15 | CCOC(=O)OC1=C(c2c(C)cc(C)cc2C)C(=O)N(OCc2ccoc2)C12CCN(OC)CC2 [P1.77] | > 80 | > 80 |  | ≥ 80
16 | CON1CCC2(CC1)C(O)=C(c1cc(C)c(Cl)cc1C)C(=O)N2OC [P2.31] |  | > 80 | > 80 | 
17 | CON1CCC2(CC1)C(O)=C(c1c(Cl)ccc(C)c1F)C(=O)N2OC [P2.48] | > 80 | > 80 |  | 
18 | CCOC(=O)OC1=C(c2c(C)cc(C)cc2C)C(=O)N(OCC2CCCOC2)C12CCN(OC)CC2 (centres unmarked) [P1.109] | > 80 | > 80 | > 80 | 
19 | CON1CCC2(CC1)C(O)=C(c1c(C)cc(C)cc1C)C(=O)N2OCC1CCCOC1 (centres unmarked) [P2.100] | > 80 | > 80 | > 80 | 
20 | CCOC(=O)OC1=C(c2c(Cl)ccc(C)c2F)C(=O)N(OC2CCCO2)C12CCN(OC)CC2 (centres unmarked) [P1.43] | > 80 | > 80 |  | 
21 | C#CCON1C(=O)C(c2c(C)cc(C)cc2C)=C(OC(=O)OCC)C12CCN(OC)CC2 [P1.29] | > 80 | > 80 | > 80 | 
22 | CCC1(CON2C(=O)C(c3c(C)cc(C)cc3C)=C(O)C23CCN(OC)CC3)COC1 [P2.86] |  | > 80 | > 80 | ≥ 80
